Measured values from patent US7507741B2, “Heterocyclic compounds” (SmithKline Beecham Corporation, priority 1999, dated 2009).

How the values were obtained:
[1] = tested on: BT474 cells; assay: Methylene blue growth inhibition assay, BT474; type: cell-based; details: BT-474, 72 h; human breast tumor cell line, 3 days
Description: (§1) Human breast (BT474), head and neck (HN5) and gastric tumor (N87) cell lines were cultured in low glucose DMEM (Life Technologies 12320-032) containing 10% fetal bovine serum (FBS) at 37° C. in a humidified 10% CO2, 90% air incubator. The SV40 transformed human mammary epithelial cell line HB4a was transfected with either human H-ras cDNA (HB4a r4.2) or the human c-erbB2 cDNA (HB4a c5.2). The HB4a clones were cultured in RPMI containing 10% FBS, insulin (5 μg/ml), hydrocortisone (5 μg/ml), supplemented with the selection agent hygromycin B (50 μg/ml). Cells were harvested using trypsin/EDTA, counted using a haemocytometer, and plated in […] of the appropriate media, at the following densities, in a 96-well tissue culture plate (Falcon 3075): BT474 10,000 cells/well, HN5 3,000 cells/well, N87 10,000 cells/well, HB4a c5.2 3,000 cells/well, HB4a r4.2 3,000 cells/well. The next day, compounds were diluted in DMEM containing […] gentamicin, at twice the final required concentration, from 10 mM stock solutions in DMSO. […] of these dilutions were added to the […] of media currently on the cell plates. Medium containing 0.6% DMSO was added to control wells. Compounds diluted in DMEM were added to all cell lines, including the HB4a r4.2 and HB4a c5.2 cell lines. The final concentration of DMSO in all wells was 0.3%. Cells were incubated at 37° C., 10% CO2 for 3 days. Medium was removed by aspiration. Cell biomass was estimated by staining cells with 100 μl per well methylene blue (Sigma M9140, 0.5% in 50:50 ethanol:water), and incubation at room temperature for at least 30 minutes. Stain was removed, and the plates rinsed under a gentle stream of water, and air-dried. To release stain from the cells 100 μl of solubilization solution was added (1% N-lauroyl sarcosine, Sodium salt, Sigma L5125, in PBS), and plates were shaken gently for about 30 minutes. Optical density at 620 nm was measured on a microplate reader. Percent inhibition of cell growth was calculated relative to vehicle treated control wells. Concentration of compound that inhibits 50% of cell growth (IC50) was interpolated using nonlinear regression (Levenberg-Marquardt) and the equation, y=Vmax*(1−(x/(K+x)))+Y2, where “K” was equal to the IC50.

[2] = target: T1, c-erbB-2 (Homo sapiens, UniProt P04626); assay: Substrate phosphorylation assay, c-erbB-2; type: biochemical; details: recombinant intracellular domain, baculovirus expressed; ATP and peptide at Km; read-out: ErbB2 IC50
T1 construct: baculovirus expressed, recombinant constructs of the intracellular domains of c-erbB-2 and c-erbB-4; made in house
Description: (§2) The substrate phosphorylation assays use baculovirus expressed, recombinant constructs of the intracellular domains of c-erbB-2 and c-erbB-4 that are constitutively active and EGFr isolated from solubilised A431 cell membranes. […] The reaction is stopped by the addition of EDTA (final concentration 0.15 mM) and a sample is transferred to a streptavidin-coated 96-well plate. The plate is washed and level of phosphotyrosine on the peptide is determined using a Europium-labelled antiphosphotyrosine antibody and quantified with a time-resolved fluorescence technique. The results are shown in Table 1 as the IC50 value in Micromolar ranges.

[3] = tested on: N87 cells; assay: Methylene blue growth inhibition assay, N87; type: cell-based; details: 72 h; human gastric tumor cell line, 3 days
Description: as §1

[4] = target: T2, EGFr isolated from solubilised A431 cell membranes (Homo sapiens, UniProt P00533); assay: Substrate phosphorylation assay, EGFr; type: biochemical; details: ATP and peptide at Km
T2 construct: EGFr isolated from solubilised A431 cell membranes; endogenous in cells; host or cells: A431 cell membranes, solubilised
Description: as §2, with “technique.” for “technique. The results are shown in Table 1 as the IC50 value in Micromolar ranges.”

[5] = tested on: HB4a c5.2 cells; assay: Methylene blue growth inhibition assay, HB4a c5.2; type: cell-based; details: HB4a-C5.2, 72 h; human mammary epithelial line transfected with human c-erbB2 cDNA, 3 days; read-out: HB4a c5.2 IC50 (cell growth)
Description: as §1

[6] = target: T3, c-erbB-4 (Homo sapiens, UniProt Q15303); assay: Substrate phosphorylation assay, c-erbB-4; type: biochemical; details: recombinant intracellular domain, baculovirus expressed; ATP and peptide at Km; read-out: ErbB4 IC50
T3 construct: baculovirus expressed, recombinant constructs of the intracellular domains of c-erbB-2 and c-erbB-4; made in house
Description: as §2, with “membranes. The method measures the ability of the isolated enzymes to catalyse the transfer of the γ-phosphate from ATP onto tyrosine residues in a biotinylated synthetic peptide (Biotin-[…].” for “membranes.”

[7] = tested on: HN5 cells; assay: Methylene blue growth inhibition assay, HN5; type: cell-based; details: HN5, 72 h; human head and neck tumor cell line, 3 days
Description: as §1

T3 sequence (Q15303 676-1308 limits assumed): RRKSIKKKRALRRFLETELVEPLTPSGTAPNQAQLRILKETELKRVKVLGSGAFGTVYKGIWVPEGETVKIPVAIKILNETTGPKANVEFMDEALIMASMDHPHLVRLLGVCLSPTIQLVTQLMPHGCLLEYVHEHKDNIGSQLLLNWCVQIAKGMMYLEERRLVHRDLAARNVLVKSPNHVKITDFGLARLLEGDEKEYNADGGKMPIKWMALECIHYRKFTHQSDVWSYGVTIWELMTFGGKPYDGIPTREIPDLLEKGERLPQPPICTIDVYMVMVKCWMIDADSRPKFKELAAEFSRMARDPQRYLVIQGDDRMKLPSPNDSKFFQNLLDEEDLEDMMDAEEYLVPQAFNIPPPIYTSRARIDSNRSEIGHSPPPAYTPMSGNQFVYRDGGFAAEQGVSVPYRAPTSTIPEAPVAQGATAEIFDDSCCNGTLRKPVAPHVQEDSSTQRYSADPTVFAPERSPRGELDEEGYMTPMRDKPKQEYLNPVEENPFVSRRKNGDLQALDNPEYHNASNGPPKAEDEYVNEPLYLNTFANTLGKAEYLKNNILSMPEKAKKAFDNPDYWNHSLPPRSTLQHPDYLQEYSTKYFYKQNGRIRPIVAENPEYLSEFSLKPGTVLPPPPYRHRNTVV
T2 sequence (P00533 25-1210): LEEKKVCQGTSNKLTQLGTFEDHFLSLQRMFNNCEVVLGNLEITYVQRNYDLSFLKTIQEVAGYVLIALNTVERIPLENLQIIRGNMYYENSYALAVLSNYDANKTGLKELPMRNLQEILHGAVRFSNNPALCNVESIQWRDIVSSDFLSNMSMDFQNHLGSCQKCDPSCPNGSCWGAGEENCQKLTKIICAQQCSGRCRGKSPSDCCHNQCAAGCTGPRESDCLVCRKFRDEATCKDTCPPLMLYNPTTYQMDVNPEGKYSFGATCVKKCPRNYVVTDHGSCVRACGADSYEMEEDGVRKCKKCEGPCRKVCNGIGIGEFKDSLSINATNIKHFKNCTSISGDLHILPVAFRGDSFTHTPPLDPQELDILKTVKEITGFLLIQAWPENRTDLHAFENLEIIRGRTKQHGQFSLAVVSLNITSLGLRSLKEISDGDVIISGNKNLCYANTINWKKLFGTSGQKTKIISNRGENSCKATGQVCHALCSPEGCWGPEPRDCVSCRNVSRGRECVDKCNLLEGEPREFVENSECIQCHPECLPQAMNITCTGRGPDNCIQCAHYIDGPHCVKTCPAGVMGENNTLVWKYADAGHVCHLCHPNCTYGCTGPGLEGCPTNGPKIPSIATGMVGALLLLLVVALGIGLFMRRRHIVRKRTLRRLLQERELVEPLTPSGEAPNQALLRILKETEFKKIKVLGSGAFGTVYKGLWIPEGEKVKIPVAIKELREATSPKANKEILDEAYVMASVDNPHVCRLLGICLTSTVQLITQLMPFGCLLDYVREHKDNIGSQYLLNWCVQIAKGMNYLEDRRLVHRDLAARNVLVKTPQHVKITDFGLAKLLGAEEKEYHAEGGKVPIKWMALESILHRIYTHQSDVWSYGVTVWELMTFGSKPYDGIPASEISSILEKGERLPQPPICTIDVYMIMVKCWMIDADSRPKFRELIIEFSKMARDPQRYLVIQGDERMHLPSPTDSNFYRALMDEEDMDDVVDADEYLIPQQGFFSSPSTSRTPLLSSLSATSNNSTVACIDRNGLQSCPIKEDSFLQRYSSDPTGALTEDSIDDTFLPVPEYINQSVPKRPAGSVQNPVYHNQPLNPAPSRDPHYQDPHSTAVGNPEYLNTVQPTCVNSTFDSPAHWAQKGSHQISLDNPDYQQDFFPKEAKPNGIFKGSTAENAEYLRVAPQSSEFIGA
T1 sequence (P04626 676-1255 limits assumed): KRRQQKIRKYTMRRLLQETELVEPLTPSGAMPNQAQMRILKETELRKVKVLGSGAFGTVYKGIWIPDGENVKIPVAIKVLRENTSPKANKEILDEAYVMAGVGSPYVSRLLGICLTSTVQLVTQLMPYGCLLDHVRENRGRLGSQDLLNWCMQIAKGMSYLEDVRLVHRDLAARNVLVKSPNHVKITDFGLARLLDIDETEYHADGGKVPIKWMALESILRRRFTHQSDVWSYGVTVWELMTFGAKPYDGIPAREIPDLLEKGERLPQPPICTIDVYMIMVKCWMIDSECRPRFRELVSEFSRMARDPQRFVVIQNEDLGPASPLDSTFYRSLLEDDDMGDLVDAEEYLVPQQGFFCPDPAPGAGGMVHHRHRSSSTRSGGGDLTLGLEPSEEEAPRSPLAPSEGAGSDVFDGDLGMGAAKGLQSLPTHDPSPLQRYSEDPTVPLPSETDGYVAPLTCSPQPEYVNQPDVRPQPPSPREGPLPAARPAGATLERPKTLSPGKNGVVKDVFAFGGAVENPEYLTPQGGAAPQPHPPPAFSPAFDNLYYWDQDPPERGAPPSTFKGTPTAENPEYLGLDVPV

## Cn1ccnc1S(=O)(=O)CCNCc1ccc(-c2ccc3ncnc(Nc4ccc(OCc5cccc(F)c5)c(Cl)c4)c3c2)o1 [Example 2, (4-(3-Fluorobenzyloxy)-3-chlorophenyl)-(6-(2-((2-(2-N-methylimidazolyl)-sulphonyl-ethylamino)-methyl)-furan-2-yl)-quinazolin-4-yl)-amine]
[1]
  IC50: 0.1 to 1 µM
[2]
  IC50: < 0.1 µM
[3]
  IC50: 0.1 to 1 µM
[4]
  IC50: < 0.1 µM
[5]
  IC50: 0.1 to 1 µM
[6]
  IC50: 0.1 to 1 µM
[7]
  IC50: 0.1 to 1 µM

## O=S(=O)(CCNCc1ccc(-c2ccc3ncnc(Nc4ccc(OCc5cccc(F)c5)c(Cl)c4)c3c2)o1)c1ccccn1 [Example 5]
[1]
  IC50: 1 to 10 µM
[2]
  IC50: < 0.1 µM
[3]
  IC50: 0.1 to 1 µM
[4]
  IC50: < 0.1 µM
[5]
  IC50: 1 to 10 µM
[6]
  IC50: 1 to 10 µM
[7]
  IC50: 0.1 to 1 µM

## CS(=O)(=O)CCN(CC#N)Cc1ccc(-c2ccc3ncnc(Nc4ccc(OCc5cccc(F)c5)c(Cl)c4)c3c2)o1 [Example 15, 2-{{[5-(4-{3-chloro-4-[(3-fluorobenzyl)oxy]anilino}-6-quinazolinyl)-2-furyl]methyl}[2-(methylsulfonyl)ethyl]amino}acetonitrile]
[1]
  IC50: < 0.1 µM
[2]
  IC50: < 0.1 µM
[3]
  IC50: 0.1 to 1 µM
[4]
  IC50: < 0.1 µM
[5]
  IC50: 0.1 to 1 µM
[6]
  IC50: 0.1 to 1 µM
[7]
  IC50: < 0.1 µM

## CC(C)S(=O)(=O)CCNCc1ccc(-c2ccc3ncnc(Nc4ccc(OCc5cccc(F)c5)c(Cl)c4)c3c2)o1 [Example 19]
[1]
  IC50: 0.1 to 1 µM
[2]
  IC50: < 0.1 µM
[3]
  IC50: 0.1 to 1 µM
[5]
  IC50: 0.1 to 1 µM
[6]
  IC50: 0.1 to 1 µM

## CS(=O)(=O)CCN(Cc1ccccc1)Cc1ccc(-c2ccc3ncnc(Nc4ccc(OCc5cccc(F)c5)c(Cl)c4)c3c2)o1 [Example 16, 6-[5-({benzyl[2-(methylsulfonyl)ethyl]amino}methyl)-2-furyl]-N-{3-chloro-4-[(3-fluorobenzyl)oxy]phenyl}-4-quinazolinamine]
[1]
  IC50: 0.1 to 1 µM
[2]
  IC50: 0.1 to 1 µM
[3]
  IC50: 0.1 to 1 µM
[5]
  IC50: 1 to 10 µM
[6]
  IC50: 0.1 to 1 µM
[7]
  IC50: 1 to 10 µM

## C=CS(=O)(=O)CCOCc1ccc(-c2ccc3ncnc(Nc4ccc(OCc5cccc(F)c5)c(Cl)c4)c3c2)o1 [Example 14, N-{3-chloro-4-[(3-fluorobenzyl)oxy]phenyl}-6-(5-{[2-(vinylsulfonyl)ethoxy]methyl}-2-furyl)-4-quinazolinamine]
[1]
  IC50: 1 to 10 µM
[2]
  IC50: < 0.1 µM
[3]
  IC50: 1 to 10 µM
[4]
  IC50: < 0.1 µM
[5]
  IC50: 1 to 10 µM
[6]
  IC50: 0.1 to 1 µM
[7]
  IC50: 1 to 10 µM

## CS(=O)(=O)CCNCCCc1ccc(-c2ccc3ncnc(Nc4ccc(OCc5ccccc5)c(Cl)c4)c3c2)o1 [Example 8]
[1]
  IC50: 0.1 to 1 µM
[2]
  IC50: < 0.1 µM
[3]
  IC50: 0.1 to 1 µM
[4]
  IC50: < 0.1 µM
[5]
  IC50: 0.1 to 1 µM
[6]
  IC50: 1 to 10 µM
[7]
  IC50: 0.1 to 1 µM

## CCCS(=O)(=O)CCNCc1ccc(-c2cc3c(Nc4ccc(OCc5cccc(F)c5)cc4)ncnc3cn2)o1 [Example 6]
[1]
  IC50: 0.1 to 1 µM
[2]
  IC50: < 0.1 µM
[3]
  IC50: 0.1 to 1 µM
[4]
  IC50: < 0.1 µM
[5]
  IC50: 0.1 to 1 µM
[6]
  IC50: 1 to 10 µM
[7]
  IC50: 0.1 to 1 µM

## O=S(=O)(CCOCc1ccc(-c2ccc3ncnc(Nc4ccc(OCc5cccc(F)c5)c(Cl)c4)c3c2)o1)c1ccccc1 [Example 3, N-{3-chloro-4-[(3-fluorobenzyl)oxy]phenyl}-6-(5-{[2-(phenylsulfonyl)ethoxy]methyl}-2-furyl)-4-quinazolinamine]
[1]
  IC50: 0.1 to 1 µM
[2]
  IC50: < 0.1 µM
[3]
  IC50: 0.1 to 1 µM
[4]
  IC50: < 0.1 µM
[5]
  IC50: 0.1 to 1 µM
[6]
  IC50: 1 to 10 µM
[7]
  IC50: 0.1 to 1 µM

## CCN(CCS(C)(=O)=O)Cc1ccc(-c2ccc3ncnc(Nc4ccc(OCc5cccc(F)c5)c(Cl)c4)c3c2)o1 [Example 17, N-{3-chloro-4-[(3-fluorobenzyl)oxy]phenyl}-6-[5-({ethyl[2-(methylsulfonyl)ethyl]amino}methyl)-2-furyl]-4-quinazolinamine]
[1]
  IC50: 0.1 to 1 µM
[2]
  IC50: < 0.1 µM
[3]
  IC50: 0.1 to 1 µM
[4]
  IC50: < 0.1 µM
[5]
  IC50: 0.1 to 1 µM
[6]
  IC50: 0.1 to 1 µM
[7]
  IC50: 0.1 to 1 µM

## CCCN(CCS(C)(=O)=O)Cc1ccc(-c2ccc3ncnc(Nc4ccc(OCc5cccc(F)c5)c(Cl)c4)c3c2)o1 [Example 18, N-{3-chloro-4-[(3-fluorobenzyl)oxy]phenyl}-6-(5-{[[2-(methylsulfonyl)ethyl](propyl)amino]methyl}-2-furyl)-4-quinazolinamine]
[1]
  IC50: 0.1 to 1 µM
[2]
  IC50: < 0.1 µM
[3]
  IC50: 0.1 to 1 µM
[4]
  IC50: < 0.1 µM
[5]
  IC50: 0.1 to 1 µM
[6]
  IC50: < 0.1 µM
[7]
  IC50: 0.1 to 1 µM

## CCCS(=O)(=O)CCNCc1ccc(-c2ccc3ncnc(Nc4ccc(OCc5cccc(F)c5)c(Cl)c4)c3c2)o1 [Example 7]
[1]
  IC50: 1 to 10 µM
[2]
  IC50: < 0.1 µM
[3]
  IC50: 1 to 10 µM
[4]
  IC50: < 0.1 µM
[5]
  IC50: 1 to 10 µM
[6]
  IC50: 0.1 to 1 µM
[7]
  IC50: 1 to 10 µM

## CS(=O)(=O)CCOCc1ccc(-c2ccc3ncnc(Nc4ccc(OCc5cccc(F)c5)c(Cl)c4)c3c2)o1 [Example 13, N-{3-chloro-4-[(3-fluorobenzyl)oxy]phenyl}-6-(5-{[2-(methylsulfonyl)ethoxy]methyl}-2-furyl)-4-quinazolinamine]
[1]
  IC50: 0.1 to 1 µM
[2]
  IC50: < 0.1 µM
[3]
  IC50: 0.1 to 1 µM
[4]
  IC50: < 0.1 µM
[5]
  IC50: 0.1 to 1 µM
[6]
  IC50: 0.1 to 1 µM
[7]
  IC50: 0.1 to 1 µM
